Assay results published in paper PMC9166766 (Experimental & Molecular Medicine, 2022).
No end group written: not given here.

Experiments:
[1] = test system: p38α; assay: In vitro kinase assay, p38α; assay type: biochemical; settings: GST-tagged peptide, 1 h, 30 °C, 50 μM ATP
Protocol: (§1) We used the purified GST-tagged peptides for the in vitro kinase assays with activated recombinant kinases obtained from Proqinase GmbH (Freiburg, Germany). We performed the kinase assays in reaction buffer (50 mM HEPES-NaOH, pH 7.5, 3 mM MgCl2, 3 mM MnCl2, 3 μM sodium orthovanadate, 1 mM dithiothreitol, 50 μM unlabeled ATP, 5 μCi ^32P-γ-ATP) for 1 h at 30 °C. We stopped the reaction by adding 5× sample buffer and separated the proteins using SDS-PAGE. The gel was stained with Coomassie Brilliant Blue, dried, and developed on X-ray film.
(§2) The phosphorylated threonine of the immunoprecipitated peptide with HA antibody was detected with [PXpTP] antibody. b In vitro kinase assays using purified GST-tagged CABIN1 peptide and PKC downstream kinases. c In vitro kinase assays using purified GST-tagged peptides and kinases included in the MAPK family. d Immunoprecipitation assays using Flag-MAPKs and HA-CABIN1 in HEK293T cells. e, f In vitro kinase assays using p38α and substituted CABIN1 peptides. g Jurkat T cells expressing HA-mCherry-tagged CABIN1 peptide were treated with 10 μM p38α inhibitors for 16 h. Immunoprecipitation was performed with HA antibody and detected by western blotting. h Phosphorylated threonine and peptide-bound CNA of g were measured using ImageJ, and the ratio of phosphorylation and calcineurin binding to the CABIN1 peptide was calculated (n = 6). […]

[2] = test system: NFAT transcriptional activity; assay: NFAT-luc luciferase reporter assay in Jurkat T cells; assay type: cell-based; settings: GST-tagged peptides, 40 nM PMA and 1 μM ionomycin 8 h
Protocol: (§3) To measure the transcriptional activity of NFAT, we cotransfected Jurkat T cells with GST-tagged peptides and NFAT-luc by electroporation. After 24 h, we pretreated the cells with 0.5 μM FK506 for 1 h and then treated them with 40 nM PMA and 1 μM ionomycin for 8 h. For the mammalian two-hybrid assay, we cotransfected HEK293T cells with GAL4 DBD-tagged CABIN1, VIVIT, chimeric and substituted peptides, VP16 activation domain-tagged CNAβ2, and pG5-luc (luciferase reporter plasmid containing the GAL4-responsive promoter) for 24 h. We lysed the harvested cells with a luciferase assay lysis buffer (17 mM KH2PO4, 183 mM K2HPO4, pH 7.8, 0.2% [v/v] Triton X-100) and sonicated them briefly. We measured luciferase activity for each cell lysate using an Infinite M200 (Tecan, Männedorf, Switzerland). In addition, we confirmed the expression level of the transfected proteins by Western blotting.
(§4) RU response units, NC negative control.
(1 picture or pasted object on this page, not shown here)

[3] = test system: CNAβ2 (calcineurin catalytic subunit); assay: Mammalian two-hybrid assay (VP16 AD-CNAβ2 and GAL4 DBD-peptides, pG5-luc) in HEK293T cells; assay type: cell-based
Protocol: as §3
A mammalian two-hybrid assay using these peptides was performed (bottom). The compositions of the transfected DNA are described in Supplementary Fig. 1a–c. All experiments were repeated three times and are presented as the mean ± standard deviation. […] SE short exposure, LE long exposure, NC negative control, WT wild-type.
NC negative control, WT wild-type.

[4] = test system: CABIN1 peptide threonine 9 phosphorylation; assay: Phosphorylation of threonine 9 of the expressed peptide in Jurkat T cells (PXpTP western blot, LC-MS/MS); assay type: cell-based; settings: HA-mCherry-tagged peptide; western blot (PXpTP antibody) and LC-MS/MS
Description: We lysed the cells in IP150 buffer and immunoprecipitated Flag- and HA-tagged proteins with Anti-FLAG ® M2 Affinity Gel (Sigma–Aldrich) and Pierce™ Anti-HA Agarose (Thermo Fisher Scientific), respectively. The composition of the buffer and the subsequent process was described previously. To quantify the western blot results, we measured the band areas using ImageJ (https://imagej.nih.gov/ij/).
We purified HA-mCherry-tagged CABIN1-L-1-2 peptides expressed in Jurkat T cells by immunoprecipitating 4 mg of lysates with Pierce™ Anti-HA Agarose. We eluted the bead-bound proteins by competition with 1 mg/ml HA peptide. After separation by SDS-PAGE and staining with Coomassie Brilliant Blue, we analyzed the purified proteins by LC-MS/MS (ProteomeTech, Inc., Seoul, Korea).
as §4
The phosphorylated threonine of the immunoprecipitated peptide with HA antibody was detected with [PXpTP] antibody. b In vitro kinase assays using purified GST-tagged CABIN1 peptide and PKC downstream kinases. c In vitro kinase assays using purified GST-tagged peptides and kinases included in the MAPK family. d Immunoprecipitation assays using Flag-MAPKs and HA-CABIN1 in HEK293T cells. e, f In vitro kinase assays using p38α and substituted CABIN1 peptides. g Jurkat T cells expressing HA-mCherry-tagged CABIN1 peptide were treated with 10 μM p38α inhibitors for 16 h. Immunoprecipitation was performed with HA antibody and detected by western blotting. h Phosphorylated threonine and peptide-bound CNA of g were measured using ImageJ, and the ratio of phosphorylation and calcineurin binding to the CABIN1 peptide was calculated (n = 6). […] Statistical differences were determined using one-way ANOVA. *p < 0.05, **p < 0.01, ***p < 0.001, CBB Coomassie Brilliant Blue, NC negative control.

[5] = test system: CNA (calcineurin catalytic subunit); assay: In vitro peptide competition assay (GST-tagged peptide / His6-tagged CNA); assay type: binding; settings: competitor CABIN1-L-1; molar ratio GST-peptide to competitor 1:50 to 1:400
[6] = Protein stability of HA-mCherry-VIVIT peptides in Jurkat T cells (western blot, FACS); assay type: cell-based; settings: mCherry-tagged, vs VIVIT 15-mer
Protocol: We quantified the expression of mCherry-tagged VIVIT peptides using LSRII (SORP) (Becton Dickinson, Franklin Lakes, NJ, USA). We analyzed the results with FlowJo (Tree Star, Inc., Ashland, OR, USA).
Protein expression l evels of VIVIT peptides were detected with HA antibody in Jurkat T cells expressing HA-mCherry -VIVIT peptides. c mCherry expression intensity and distribution
cells/sample) d mRNA expression level of mCherry was measured by qRT -PCR. (n=4) Values shown are the mean ± standard deviation. SE, short exposure, LE, long expo sure, NC, negative

[7] = test system: ERK2; assay: In vitro kinase assay, ERK2; assay type: biochemical; settings: GST-tagged peptide, 1 h, 30 °C, 50 μM ATP
Protocol: as §1, §2

[8] = test system: JNK1; assay: In vitro kinase assay, JNK1; assay type: biochemical; settings: GST-tagged peptide, 1 h, 30 °C, 50 μM ATP
Protocol: as §1, §2

[9] = test system: MKK4; assay: In vitro kinase assay, MKK4; assay type: biochemical; settings: GST-tagged peptide, 1 h, 30 °C, 50 μM ATP
Protocol: as §1, §2

[10] = test system: calcineurin (CNA) phosphatase activity; assay: In vitro calcineurin phosphatase activity assay; assay type: biochemical; settings: purified GST-tagged peptides with CNA 30 min room temperature
Protocol: We measured calcineurin phosphatase activity in vitro using a calcineurin phosphatase assay kit (BML-AK804, Enzo Life Sciences, Farmingdale, NY, USA). We incubated GST or GST-tagged peptides with CNA for 30 min at room temperature and then followed the manufacturer’s instructions. To measure endogenous calcineurin phosphatase activity, we transiently transfected Jurkat T cells with CAG-HA-mCherry-peptides by electroporation. After 24 h, we pretreated the Jurkat T cells with FK506 for 1 h before activating them with PMA and ionomycin. Next, we washed the cells with TBS buffer (20 mM Tris, pH 7.2, 150 mM NaCl), resuspended them with lysis buffer from the calcineurin cellular activity assay kit (BML-AK816, Enzo Life Sciences), and kept them on ice for 30 min. We collected the lysate supernatant and removed free phosphate by gel filtration using the Desalting Column Resin included in the kit. Next, we followed the manufacturer’s instructions.
Jurkat T cells expressing only HA-mCherry were used as a negative control, and cells treated with FK506 were used as a positive control. d In vitro calcineurin phosphatase activity assays using purified GST-tagged peptides. Purified GST was used as a negative control. […] Statistical differences were determined using one-way ANOVA. *p < 0.05, NS nonsignificant, NC negative control.

[11] = parameters: method as in PMID 24319282; settings: ref [17]; cited from earlier work
Description: FK506 and cyclosporin A, respectively cooperating with FKBP12 or cyclophilin, spatially hinder the substrates’ access to the active site of calcineurin, inhibiting its phosphatase activity[30],[31].

Molecule | phosphorylation by p38α [1] | NFAT luciferase activity ([2]; n = 3) | inhibitory effect on NFAT luciferase relative to VIVIT peptide ([2]; n = 3, vs VIVIT peptide) | interaction with / binding affinity to CNA (mammalian two-hybrid) ([3]; CNAβ2, 24 h, repeated three times) | interaction with CNA, effect of 1 μM ionomycin ([3]; with or without 1 μM ionomycin) | threonine 9 phosphorylation in Jurkat T cells [4] | interference with interaction between GST-tagged VIVIT peptide and His6-tagged CNA [5] | stability under physiological conditions vs full-length VIVIT peptide (15-mer) [6] | phosphorylation by ERK2 [7] | phosphorylation by JNK1 [8] | phosphorylation by MKK4 [9] | calcineurin phosphatase activity in vitro [10] | side effects [11]
CABIN1-L-1-2: 10 amino acids from proline 2146 to proline 2155 of full-length CABIN1; expressed GST-, GAL4 DBD- or HA-mCherry-tagged (PEITVTPPTP; also: expressed GST-, GAL4 DBD- or HA-mCherry-tagged, end not given here) | phosphorylated | repressed luciferase activity compared with the negative control | approximately four times stronger than that of the VIVIT peptide | still bound to CNA | did not affect the interaction | observed threonine 9 phosphorylation | dose-dependently interfered with the interaction | more stable than the full-length VIVIT peptide (15-mer) | phosphorylated | phosphorylated | directly phosphorylate | did not reduce the phosphatase activity of CNA in vitro | –
C=CC[C@@H]1/C=C(\C)C[C@H](C)C[C@H](OC)[C@H]2O[C@@](O)(C(=O)C(=O)N3CCCC[C@H]3C(=O)O[C@H](/C(C)=C/[C@@H]3CC[C@@H](O)[C@H](OC)C3)[C@H](C)[C@@H](O)CC1=O)[C@H](C)C[C@@H]2OC [FK506, reference compound] | – | – | – | – | – | – | – | – | – | – | – | – | nephrotoxicity, fibrogenesis, neurotoxicity, and diabetes
